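Where inhibition never reached the appropriate level, the endpoint shown equals the highest concentration tested. Otherwise, values were interpolated linearly from a five-concentration, 48-hour dose response in 96-well plates. The concentration for 50% growth inhibition is given as GI50.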 Active and inactive are the calls of the source. Rule as the data show it: active = GI50 up to about 1.1 µM and inactive = higher.
Legend:
Experiment in all cases: NCI-60 cell line screen, 48 h
RPMI-8226 = tested on: RPMI-8226
ACHN = tested on: ACHN
DLD-1 = tested on: DLD-1
HOP-18 = tested on: HOP-18
U-251 = tested on: U-251
OVCAR-4 = tested on: OVCAR-4
NCI-H23 = tested on: NCI-H23
A549 = tested on: A549
786-0 = tested on: 786-0
SK-MEL-28 = tested on: SK-MEL-28
HT-29 = tested on: HT-29
TK-10 = tested on: TK-10
UO-31 = tested on: UO-31
DMS-273 = tested on: DMS-273
NCI-H522 = tested on: NCI-H522
SNB-19 = tested on: SNB-19
KM-20L2 = tested on: KM-20L2
SK-OV-3 = tested on: SK-OV-3
M14 = tested on: M14
XF498 = tested on: XF498
RXF 393 = tested on: RXF 393
OVCAR-8 = tested on: OVCAR-8
SF-295 = tested on: SF-295
SNB-75 = tested on: SNB-75
LXFL 529 = tested on: LXFL 529
HCT-116 = tested on: HCT-116
HOP-62 = tested on: HOP-62
SW-620 = tested on: SW-620
HL-60 = tested on: HL-60
K562 = tested on: K562
Malme-3M = tested on: Malme-3M
SN12C = tested on: SN12C
HCT-15 = tested on: HCT-15
UACC-257 = tested on: UACC-257
UACC-62 = tested on: UACC-62
SK-MEL-5 = tested on: SK-MEL-5
SNB-78 = tested on: SNB-78
DMS-114 = tested on: DMS-114
A498 = tested on: A498
MOLT-4 = tested on: MOLT-4
EKVX = tested on: EKVX
LOX IMVI = tested on: LOX IMVI
M19-MEL = tested on: M19-MEL
SK-MEL-2 = tested on: SK-MEL-2
NCI-H460 = tested on: NCI-H460
HCC 2998 = tested on: HCC 2998
CCRF-CEM = tested on: CCRF-CEM
OVCAR-5 = tested on: OVCAR-5
CAKI-1 = tested on: CAKI-1
IGROV-1 = tested on: IGROV-1
SF-539 = tested on: SF-539
RXF 631 = tested on: RXF 631
KM12 = tested on: KM12
SF-268 = tested on: SF-268
SR = tested on: SR
HOP-92 = tested on: HOP-92
COLO 205 = tested on: COLO 205
OVCAR-3 = tested on: OVCAR-3
NCI-H226 = tested on: NCI-H226

SMILES: COC(=O)c1ccc2n[se]nc2c1
- GI50 (RPMI-8226): > 100 µM (inactive)
- GI50 (ACHN): > 100 µM (inactive)
- GI50 (DLD-1): > 100 µM (inactive)
- GI50 (HOP-18): > 100 µM (inactive)
- GI50 (U-251): > 100 µM (inactive)
- GI50 (OVCAR-4): > 100 µM (inactive)
- GI50 (NCI-H23): > 100 µM (inactive)
- GI50 (A549): > 100 µM (inactive)
- GI50 (786-0): > 100 µM (inactive)
- GI50 (SK-MEL-28): > 100 µM (inactive)
- GI50 (HT-29): > 100 µM (inactive)
- GI50 (TK-10): > 100 µM (inactive)
- GI50 (UO-31): > 100 µM (inactive)
- GI50 (DMS-273): > 100 µM (inactive)
- GI50 (NCI-H522): > 100 µM (inactive)
- GI50 (SNB-19): > 100 µM (inactive)
- GI50 (KM-20L2): > 100 µM (inactive)
- GI50 (SK-OV-3): > 100 µM (inactive)
- GI50 (M14): > 100 µM (inactive)
- GI50 (XF498): > 100 µM (inactive)
- GI50 (RXF 393): > 100 µM (inactive)
- GI50 (OVCAR-8): > 100 µM (inactive)
- GI50 (SF-295): > 100 µM (inactive)
- GI50 (SNB-75): 83.6 µM (inactive)
- GI50 (LXFL 529): > 100 µM (inactive)
- GI50 (HCT-116): > 100 µM (inactive)
- GI50 (HOP-62): > 100 µM (inactive)
- GI50 (SW-620): > 100 µM (inactive)
- GI50 (HL-60): > 100 µM (inactive)
- GI50 (K562): > 100 µM (inactive)
- GI50 (Malme-3M): > 100 µM (inactive)
- GI50 (SN12C): > 100 µM (inactive)
- GI50 (HCT-15): > 100 µM
- GI50 (UACC-257): > 100 µM (inactive)
- GI50 (UACC-62): > 100 µM (inactive)
- GI50 (SK-MEL-5): > 100 µM (inactive)
- GI50 (SNB-78): > 100 µM (inactive)
- GI50 (DMS-114): > 100 µM (inactive)
- GI50 (A498): > 100 µM (inactive)
- GI50 (MOLT-4): > 100 µM (inactive)
- GI50 (EKVX): 71 µM (inactive)
- GI50 (LOX IMVI): > 100 µM (inactive)
- GI50 (M19-MEL): > 100 µM (inactive)
- GI50 (SK-MEL-2): > 100 µM (inactive)
- GI50 (NCI-H460): > 100 µM (inactive)
- GI50 (HCC 2998): > 100 µM (inactive)
- GI50 (CCRF-CEM): > 100 µM (inactive)
- GI50 (OVCAR-5): > 100 µM (inactive)
- GI50 (CAKI-1): > 100 µM (inactive)
- GI50 (IGROV-1): > 100 µM (inactive)
- GI50 (SF-539): > 100 µM (inactive)
- GI50 (RXF 631): > 100 µM (inactive)
- GI50 (KM12): > 100 µM (inactive)
- GI50 (SF-268): > 100 µM (inactive)
- GI50 (SR): > 100 µM (inactive)

SMILES: O=C1c2ccccc2C(=O)N1CCN(CCN1C(=O)c2ccccc2C1=O)Cn1cccn1
- GI50 (RPMI-8226): 29.2 µM (inactive)
- GI50 (ACHN): > 100 µM (inactive)
- GI50 (DLD-1): 31.9 µM (inactive)
- GI50 (U-251): > 100 µM (inactive)
- GI50 (OVCAR-4): > 100 µM (inactive)
- GI50 (A549): > 100 µM (inactive)
- GI50 (786-0): > 100 µM (inactive)
- GI50 (SK-MEL-28): 73.8 µM (inactive)
- GI50 (TK-10): > 100 µM (inactive)
- GI50 (UO-31): > 100 µM (inactive)
- GI50 (DMS-273): 46.1 µM (inactive)
- GI50 (NCI-H522): > 100 µM (inactive)
- GI50 (SNB-19): > 100 µM (inactive)
- GI50 (KM-20L2): > 100 µM (inactive)
- GI50 (SK-OV-3): > 100 µM (inactive)
- GI50 (M14): > 100 µM (inactive)
- GI50 (XF498): > 100 µM (inactive)
- GI50 (RXF 393): > 100 µM (inactive)
- GI50 (OVCAR-8): > 100 µM (inactive)
- GI50 (SF-295): > 100 µM (inactive)
- GI50 (SNB-75): 87.3 µM (inactive)
- GI50 (LXFL 529): > 100 µM (inactive)
- GI50 (HCT-116): 17.8 µM (inactive)
- GI50 (HOP-62): > 100 µM (inactive)
- GI50 (SW-620): 41.8 µM (inactive)
- GI50 (HL-60): 27.4 µM (inactive)
- GI50 (HOP-92): > 100 µM (inactive)
- GI50 (K562): 33.4 µM (inactive)
- GI50 (SN12C): > 100 µM (inactive)
- GI50 (HCT-15): > 100 µM
- GI50 (UACC-257): > 100 µM (inactive)
- GI50 (UACC-62): 28.2 µM (inactive)
- GI50 (SK-MEL-5): > 100 µM (inactive)
- GI50 (SNB-78): > 100 µM (inactive)
- GI50 (DMS-114): 19.5 µM (inactive)
- GI50 (A498): > 100 µM (inactive)
- GI50 (MOLT-4): > 100 µM (inactive)
- GI50 (EKVX): > 100 µM (inactive)
- GI50 (LOX IMVI): > 100 µM (inactive)
- GI50 (M19-MEL): 69.8 µM (inactive)
- GI50 (SK-MEL-2): > 100 µM (inactive)
- GI50 (NCI-H460): 84.3 µM (inactive)
- GI50 (HCC 2998): > 100 µM (inactive)
- GI50 (CCRF-CEM): 32.7 µM (inactive)
- GI50 (COLO 205): > 100 µM (inactive)
- GI50 (OVCAR-3): > 100 µM (inactive)
- GI50 (CAKI-1): > 100 µM (inactive)
- GI50 (RXF 631): 29 µM (inactive)
- GI50 (KM12): > 100 µM (inactive)
- GI50 (SF-268): > 100 µM (inactive)

SMILES: COc1ccc2c(c1)O[C@H]1c3ccc(O)cc3OC[C@@H]21
- GI50 (RPMI-8226): 25.7 µM (inactive)
- GI50 (ACHN): 27.2 µM (inactive)
- GI50 (DLD-1): 34.8 µM (inactive)
- GI50 (HOP-18): 93.5 µM (inactive)
- GI50 (U-251): 27.9 µM (inactive)
- GI50 (OVCAR-4): 34.6 µM (inactive)
- GI50 (NCI-H23): 26 µM (inactive)
- GI50 (A549): 28.6 µM (inactive)
- GI50 (NCI-H226): 25.1 µM (inactive)
- GI50 (HT-29): 34.4 µM (inactive)
- GI50 (TK-10): 35.3 µM (inactive)
- GI50 (UO-31): 20 µM (inactive)
- GI50 (DMS-273): 30.9 µM (inactive)
- GI50 (NCI-H522): 22.7 µM (inactive)
- GI50 (SNB-19): 68.1 µM (inactive)
- GI50 (KM-20L2): 31.6 µM (inactive)
- GI50 (SK-OV-3): 39.5 µM (inactive)
- GI50 (M14): 19.2 µM (inactive)
- GI50 (XF498): 20.5 µM (inactive)
- GI50 (RXF 393): 19.3 µM (inactive)
- GI50 (OVCAR-8): 36 µM (inactive)
- GI50 (SF-295): 35.2 µM (inactive)
- GI50 (SNB-75): 11.2 µM (inactive)
- GI50 (LXFL 529): 25.4 µM (inactive)
- GI50 (HCT-116): 27.6 µM (inactive)
- GI50 (HOP-62): 45.5 µM (inactive)
- GI50 (SW-620): 33 µM (inactive)
- GI50 (HL-60): 18.1 µM (inactive)
- GI50 (K562): 30.1 µM (inactive)
- GI50 (Malme-3M): 34.8 µM (inactive)
- GI50 (SN12C): 38.8 µM (inactive)
- GI50 (HCT-15): 34.1 µM
- GI50 (UACC-257): 21.8 µM (inactive)
- GI50 (UACC-62): 14.3 µM (inactive)
- GI50 (SK-MEL-5): 17.3 µM (inactive)
- GI50 (SNB-78): 29.2 µM (inactive)
- GI50 (MOLT-4): 19.8 µM (inactive)
- GI50 (EKVX): 34 µM (inactive)
- GI50 (LOX IMVI): 13 µM (inactive)
- GI50 (M19-MEL): 18 µM (inactive)
- GI50 (SK-MEL-2): 26.5 µM (inactive)
- GI50 (NCI-H460): 35.1 µM (inactive)
- GI50 (HCC 2998): 22.9 µM (inactive)
- GI50 (CCRF-CEM): 19.2 µM (inactive)
- GI50 (OVCAR-5): 48.6 µM (inactive)
- GI50 (COLO 205): 24.1 µM (inactive)
- GI50 (OVCAR-3): 29.2 µM (inactive)
- GI50 (CAKI-1): 24.1 µM (inactive)
- GI50 (IGROV-1): 17.5 µM (inactive)
- GI50 (SF-539): 20.7 µM (inactive)
- GI50 (RXF 631): 31.8 µM (inactive)
- GI50 (SF-268): 28.1 µM (inactive)
- GI50 (SR): 14.3 µM (inactive)

Reference: ChEMBL document CHEMBL1201862, “PubChem BioAssay data set” (2004)
